# Results: ChEMBL document CHEMBL1123675, “2,4-Diamino-5-benzylpyrimidines as antibacterial agents. 7. Analysis of the effect of 3,5-dialkyl substituent size and shape on binding to four different dihydrofolate reductase enzymes” (J Med Chem, 1987)
# Tests used:
# Dihydrofolate reductase [1] = molecular target: Dihydrofolate reductase (Neisseria gonorrhoeae, UniProt P04174); assay: Inhibitory activity against dihydrofolate reductase (DHFR) of Neisseria gonorrhoea; conditions: read-out: I50
# Dihydrofolate reductase [2] = molecular target: T1, Dihydrofolate reductase (Rattus norvegicus, UniProt Q920D2); assay: Inhibitory activity against dihydrofolate reductase (DHFR) from rat liver; conditions: read-out: I50
# T1 sequence (Q920D2 whole entry): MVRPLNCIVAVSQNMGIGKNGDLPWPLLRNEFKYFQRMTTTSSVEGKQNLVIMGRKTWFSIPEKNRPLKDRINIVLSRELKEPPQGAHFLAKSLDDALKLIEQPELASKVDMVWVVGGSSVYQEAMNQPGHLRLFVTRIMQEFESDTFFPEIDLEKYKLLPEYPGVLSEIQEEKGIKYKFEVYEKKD
# [3] = molecular target: Bifunctional dihydrofolate reductase-thymidylate synthase (Plasmodium berghei str. ANKA, UniProt Q27713); assay: Inhibitory activity against dihydrofolate reductase (DHFR) of Plasmodium berghei; conditions: read-out: I50
# Bifunctional dihydrofolate reductase-thymidylate synthase, sequence (Q27713 whole entry): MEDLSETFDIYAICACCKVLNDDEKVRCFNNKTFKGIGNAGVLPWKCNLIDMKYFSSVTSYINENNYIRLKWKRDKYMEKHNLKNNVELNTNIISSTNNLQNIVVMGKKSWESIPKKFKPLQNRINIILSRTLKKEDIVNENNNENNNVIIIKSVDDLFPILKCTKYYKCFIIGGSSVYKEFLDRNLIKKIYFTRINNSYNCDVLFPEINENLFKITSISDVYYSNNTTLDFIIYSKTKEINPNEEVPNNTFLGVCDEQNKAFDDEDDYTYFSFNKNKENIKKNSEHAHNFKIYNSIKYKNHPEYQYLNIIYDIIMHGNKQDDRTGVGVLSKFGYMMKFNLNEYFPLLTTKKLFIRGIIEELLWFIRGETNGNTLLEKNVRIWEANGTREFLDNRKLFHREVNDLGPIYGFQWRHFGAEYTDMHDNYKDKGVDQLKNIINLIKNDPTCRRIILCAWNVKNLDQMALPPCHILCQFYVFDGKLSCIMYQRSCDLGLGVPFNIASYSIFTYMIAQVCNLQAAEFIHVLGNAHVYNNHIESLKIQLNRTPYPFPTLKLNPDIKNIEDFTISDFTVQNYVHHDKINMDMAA
# [4] = molecular target: T2, Dihydrofolate reductase (Rattus norvegicus) (UniProt Q920D2); assay: Inhibitory activity against dihydrofolate reductase (DHFR) of Rat liver at a concentration 2 x 10 E -5 M
# T2 sequence (whole entry): T1 sequence (Q920D2 whole entry)
# [5] = molecular target: T2, Dihydrofolate reductase (Rattus norvegicus); assay: Inhibitory activity against dihydrofolate reductase (DHFR) of Rat liver at a concentration 10 E -6 M
# Dihydrofolate reductase (Neisseria gonorrhoeae, UniProt P04174), sequence (P04174 whole entry): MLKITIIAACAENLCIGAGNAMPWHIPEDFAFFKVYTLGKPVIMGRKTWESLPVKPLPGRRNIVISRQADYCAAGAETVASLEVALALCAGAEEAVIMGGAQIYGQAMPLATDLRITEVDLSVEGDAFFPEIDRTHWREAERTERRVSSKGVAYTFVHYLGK
SMILES,IC50 (Dihydrofolate reductase [1]),IC50 (Dihydrofolate reductase [2]),IC50 [3],Inhibition [4],Inhibition [5]
Cc1cc(Cc2cnc(N)nc2N)cc(C)c1O,0.526 µM,71 µM,–,–,–
CC(C)c1cc(Cc2cnc(N)nc2N)cc(C(C)C)c1N,0.137 µM,34 µM,–,–,–
Nc1ncc(Cc2cc(I)c(OCCCOc3ccccc3)c(I)c2)c(N)n1,0.043 µM,1.58 µM,–,–,–
CCCc1cc(Cc2cnc(N)nc2N)cc(CCC)c1O,0.02 µM,2 µM,0.0057 µM,–,–
CCOc1cc(Cc2cnc(N)nc2N)cc(OCC)c1OCC,0.22 µM,30 µM,0.0075 µM,–,–
Nc1ncc(Cc2cc(Br)c(N)c(Br)c2)c(N)n1,0.093 µM,57 µM,–,–,–
COc1c(I)cc(Cc2cnc(N)nc2N)cc1I,0.028 µM,16 µM,0.031 µM,–,–
CCCCOc1c(CCC)cc(Cc2cnc(N)nc2N)cc1CCC,0.132 µM,15 µM,0.0058 µM,–,–
CCOc1c(CC)cc(Cc2cnc(N)nc2N)cc1CC,0.356 µM,52 µM,0.035 µM,–,–
Nc1ncc(Cc2cc(Cl)c(N)c(Cl)c2)c(N)n1,0.318 µM,130 µM,–,–,–
COc1c(C)cc(Cc2cnc(N)nc2N)cc1C,0.5 µM,250 µM,0.12 µM,–,–
COc1c(C)cc(Cc2cnc(N)nc2N)cc1C(C)(C)C,0.24 µM,130 µM,0.077 µM,–,–
CCCc1cc(Cc2cnc(N)nc2N)cc(CC)c1OC,0.044 µM,32 µM,0.01 µM,–,–
COc1cc(Cc2cnc(N)nc2N)cc(OC)c1O [4-HYDROXYTRIMETHOPRIM],0.33 µM,–,–,–,–
CCc1cc(Cc2cnc(N)nc2N)cc(CC)c1O,0.12 µM,16 µM,0.028 µM,–,–
COc1cc(Cc2cnc(N)nc2N)ccc1O,–,35 µM,–,–,–
CCc1cc(Cc2cnc(N)nc2N)cc(C)c1O,0.35 µM,39 µM,–,–,–
CCCc1cc(Cc2cnc(N)nc2N)cc(CC)c1O,0.049 µM,4.45 µM,0.015 µM,–,–
COc1c(C(C)(C)C)cc(Cc2cnc(N)nc2N)cc1C(C)(C)C,0.058 µM,31 µM,0.013 µM,–,–
CC(C)c1cc(Cc2cnc(N)nc2N)cc(C(C)C)c1O,0.029 µM,8.9 µM,0.11 µM,–,–
Cc1cc(Cc2cnc(N)nc2N)cc(C)c1N,0.485 µM,380 µM,–,–,–

SMILES,IC50 (Dihydrofolate reductase [1]),IC50 (Dihydrofolate reductase [2]),IC50 [3],Inhibition [4],Inhibition [5]
COc1ccc(Cc2cnc(N)nc2N)cc1OC [DIAVERIDINE],0.53 µM,86 µM,–,–,–
CC(C)(C)c1cc(Cc2cnc(N)nc2N)cc(C(C)(C)C)c1O,0.061 µM,34.5 µM,0.14 µM,–,–
CCc1cc(Cc2cnc(N)nc2N)cc(C)c1OC,0.31 µM,83 µM,0.12 µM,–,–
CCc1cc(Cc2cnc(N)nc2N)cc(CC)c1OC,0.155 µM,58 µM,0.0121 µM,–,–
CCCc1cc(Cc2cnc(N)nc2N)cc(CCC)c1OC,0.06 µM,21 µM,0.02 µM,–,–
CCCCCCCCCCCCOc1c(CC)cc(Cc2cnc(N)nc2N)cc1CC,3.5 µM,64 µM,0.35 µM,–,–
CCc1cc(Cc2cnc(N)nc2N)cc(CC)c1OCCO,0.045 µM,120 µM,–,–,–
Cc1cc(Cc2cnc(N)nc2N)cc(C(C)(C)C)c1O,0.259 µM,120 µM,–,–,–
COc1cc(Cc2cnc(N)nc2N)ccc1N,–,470 µM,–,–,–
COc1cc(Cc2cnc(N)nc2N)cc(OC)c1N,0.81 µM,520 µM,–,–,–
Cc1cc(Cc2cnc(N)nc2N)cc(Cl)c1N,–,160 µM,–,–,–
CCc1cc(Cc2cnc(N)nc2N)cc(C)c1N,0.56 µM,144 µM,–,–,–
Cc1cc(Cc2cnc(N)nc2N)cc(C(C)(C)C)c1N,0.39 µM,370 µM,–,–,–
CCc1cc(Cc2cnc(N)nc2N)cc(CC)c1N,0.107 µM,38 µM,–,–,–
CCCCC(CC)COc1c(CC)cc(Cc2cnc(N)nc2N)cc1CC (centres undefined),0.319 µM,–,0.042 µM,0%,–
Nc1ncc(Cc2cc(I)c(O)c(I)c2)c(N)n1,0.028 µM,9.9 µM,0.053 µM,–,–
CCOc1c(C)c(C)c(Cc2cnc(N)nc2N)c(C)c1C,–,–,–,–,0%
COc1c(C(C)C)cc(Cc2cnc(N)nc2N)cc1C(C)C,0.063 µM,13 µM,0.023 µM,–,–
CCc1cc(Cc2cnc(N)nc2N)cc(CC)c1OCCCOc1ccccc1,0.064 µM,8.75 µM,0.01 µM,–,–
Cc1cc(Cc2cnc(N)nc2N)cc(C(C)C)c1N,0.26 µM,–,–,–,–
CCc1cc(Cc2cnc(N)nc2N)cc(C(C)CC)c1N (centres undefined),0.075 µM,27 µM,–,–,–
